In paper PMC3795025, “A Target-Disease Network Model of Second-Generation BCR-ABL Inhibitor Action in Ph+ ALL” (PLoS ONE, 2013):

Target: LYN (Homo sapiens, UniProt P07948)
Test: chemical proteomics pulldown from cell lysate (c-bafetinib beads, competition with […] free drug)
Type: cell-based

Sequence of LYN (P07948 2-512): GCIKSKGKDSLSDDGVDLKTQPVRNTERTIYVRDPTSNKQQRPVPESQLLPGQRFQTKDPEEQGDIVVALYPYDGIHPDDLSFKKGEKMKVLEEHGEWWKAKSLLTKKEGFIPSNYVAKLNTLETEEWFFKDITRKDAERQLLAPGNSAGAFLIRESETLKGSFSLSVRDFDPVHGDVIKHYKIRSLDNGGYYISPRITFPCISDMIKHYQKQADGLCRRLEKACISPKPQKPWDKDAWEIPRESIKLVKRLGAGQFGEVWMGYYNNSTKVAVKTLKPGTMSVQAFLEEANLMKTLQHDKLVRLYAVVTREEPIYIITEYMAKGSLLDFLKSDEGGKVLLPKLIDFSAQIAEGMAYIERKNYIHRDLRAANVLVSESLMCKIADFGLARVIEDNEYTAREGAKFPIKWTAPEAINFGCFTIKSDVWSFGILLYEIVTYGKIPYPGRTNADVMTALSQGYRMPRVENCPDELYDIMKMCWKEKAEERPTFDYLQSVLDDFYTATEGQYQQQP

With `Cc1ccc(NC(=O)c2ccc(CN3CC[C@H](N(C)C)C3)c(C(F)(F)F)c2)cc1Nc1nccc(-c2cncnc2)n1` [bafetinib] the “chemical proteomics pulldown from cell lysate (c-bafetinib beads, competition wi)” value was “LYN and BTK have been identified with all four TKI in the present chemical proteomics screen”.
